Data: patent US20100267561A1, “HERBICIDAL PYRIDAZINONE DERIVATIVES” (priority 2007, published 2010)

Assays:
Assay type in all cases: in vivo
[1] = test system: ducksalad (Heteranthera limosa); assay: Test B flooded paddy test plant response
Procedure, shortened: (§1)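 Paddy-water application to 2-leaf plants in pots held under 3 cm of flooding; response is a 0–100 visual control rating against controls after 13 to 15 days, and a dash marks a missing result.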

[2] = test system: barnyardgrass (Echinochloa crus-galli); assay: Test B flooded paddy test plant response
Procedure, shortened: as §1

[3] = test system: rice (Oryza sativa); assay: Test B flooded paddy test plant response
Procedure, shortened: as §1

[4] = test system: umbrella sedge (Cyperus difformis); assay: Test B flooded paddy test plant response
Procedure, shortened: as §1

[5] = test system: surinam grass (Brachiaria decumbens); assay: Test B pre-/postemergence plant response; details: for Surinam Grass plant response rating: 8 g ai/ha
Procedure, shortened: (§2)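 Preemergence and postemergence (plants 2-18 cm, 1- to 4-leaf stage) applications used test chemicals in a non-phytotoxic solvent with surfactant. Plants were held in a greenhouse 13 to 15 days, then rated visually against controls on a 0-100 scale (0 no effect, 100 complete control).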

[6] = test system: goosegrass (Eleusine indica); assay: Test B pre-/postemergence plant response; details: for Goosegrass plant response rating: 8 g ai/ha
Procedure, shortened: as §2

[7] = test system: giant foxtail (Setaria faberii); assay: Test B pre-/postemergence plant response; details: for Foxtail, Giant plant response rating: 8 g ai/ha
Procedure, shortened: as §2

[8] = test system: eastern black (E.B.) nightshade (Solanum ptycanthum); assay: Test B pre-/postemergence plant response; details: Preemergence
Procedure, shortened: as §2

[9] = test system: morningglory (Ipomoea coccinea); assay: Test B pre-/postemergence plant response; details: for Morningglory plant response rating: 8 g ai/ha
Procedure, shortened: as §2

[10] = test system: wheat (Triticum aestivum); assay: Test B pre-/postemergence plant response; details: for Wheat plant response rating: 8 g ai/ha
Procedure, shortened: as §2

[11] = test system: Russian thistle (Salsola iberica); assay: Test B pre-/postemergence plant response; details: Preemergence
Procedure, shortened: as §2

[12] = test system: soybean (Glycine max); assay: Test B pre-/postemergence plant response; details: for Soybean plant response rating: 8 g ai/ha
Procedure, shortened: as §2

[13] = test system: downy bromegrass (Bromus tectorum); assay: Test B pre-/postemergence plant response; details: for Bromegrass, Downy plant response rating: 8 g ai/ha
Procedure, shortened: as §2

[14] = test system: common (oilseed) sunflower (Helianthus annuus); assay: Test B pre-/postemergence plant response; details: Preemergence
Procedure, shortened: as §2

[15] = Flood (flooded paddy test), 125 g ai/ha, scale 0 to 100, 0 no effect, 100 complete control
[16] = Flood (flooded paddy test), 250 g ai/ha, scale 0 to 100, 0 no effect, 100 complete control
[17] = Flood, 31 g ai/ha, scale 0 to 100
[18] = Flood (flooded paddy test), 62 g ai/ha, scale 0 to 100, 0 no effect, 100 complete control
[19] = Postemergence, 16 g ai/ha, scale 0 to 100
[20] = Postemergence, 62 g ai/ha, scale 0 to 100, 0 no effect, 100 complete control
[21] = Preemergence, 16 g ai/ha, scale 0 to 100 (0 no effect, 100 complete control)
[22] = Preemergence, 31 g ai/ha, 0 to 100 scale, 0 no effect, 100 complete control
[23] = Preemergence, 62 g ai/ha, scale 0 to 100
[24] = Postemergence, 31 g ai/ha, scale 0 to 100, 0 no effect, 100 complete control
[25] = 16 g ai/ha, scale 0 to 100 (0 no effect, 100 complete control)
[26] = 31 g ai/ha, 0 to 100 scale, 0 no effect, 100 complete control

Cc1cc(-c2ccc(Cl)cc2)nn1-c1c(OC(=O)c2ccccc2Cl)cnn(C)c1=O [Compound 38]
Plant response rating, Ducksalad [1, 15]: 30 | Plant response rating, Ducksalad [1, 16]: 40 | Plant response rating, Ducksalad [1, 17]: 40 | Plant response rating, Barnyardgrass [2, 18]: 95 | Plant response rating, Barnyardgrass [2, 15]: 95 | Plant response rating, Barnyardgrass [2, 16]: 95 | Plant response rating, Barnyardgrass [2, 17]: 20 | Plant response rating, Rice [3, 18]: 75 | Plant response rating, Rice [3, 15]: 75 | Plant response rating, Rice [3, 16]: 85 | Plant response rating, Rice [3, 17]: 0 | Plant response rating, Sedge, Umbrella [4, 15]: 70 | Plant response rating, Sedge, Umbrella [4, 16]: 70 | Plant response rating, Sedge, Umbrella [4, 17]: 20 | Surinam Grass plant response rating ([5]; postemergence, 0-100 scale): 90 | Plant response rating, Surinam Grass [5, 19]: 90 | Plant response rating, Surinam Grass [5, 20]: 100 | Plant response rating, Surinam Grass [5, 21]: 90 | Plant response rating, Surinam Grass [5, 22]: 100 | Plant response rating, Surinam Grass [5, 23]: 100 | Surinam Grass plant response rating ([5]; Preemergence, scale 0 to 100): 90 | Goosegrass plant response rating ([6]; postemergence, 0-100 scale): 100 | Plant response rating, Goosegrass [6, 19]: 100 | Plant response rating, Goosegrass [6, 24]: 100 | Plant response rating, Goosegrass [6, 20]: 100 | Plant response rating, Goosegrass [6, 21]: 85 | Plant response rating, Goosegrass [6, 22]: 95 | Plant response rating, Goosegrass [6, 23]: 95 | Goosegrass plant response rating ([6]; Preemergence, scale 0 to 100): 45 | Foxtail, Giant plant response rating ([7]; postemergence, 0-100 scale): 0 | Plant response rating, Foxtail, Giant [7, 19]: 20 | Plant response rating, Foxtail, Giant [7, 24]: 50 | Plant response rating, Foxtail, Giant [7, 20]: 100 | Plant response rating, Foxtail, Giant [7, 21]: 98 | Plant response rating, Foxtail, Giant [7, 22]: 100 | Plant response rating, Foxtail, Giant [7, 23]: 100 | Foxtail, Giant plant response rating ([7]; Preemergence, scale 0 to 100): 45 | Plant response rating, Nightshade, E. B. [8, 25]: 0 | Plant response rating, Nightshade, E. B. [8, 26]: 0 | Plant response rating, Nightshade, E. B. ([8]; 62 g ai/ha, scale 0 to 100): 0 | Nightshade, E. B. plant response rating ([8]; 8 g ai/ha, scale 0 to 100): 0 | Morningglory plant response rating ([9]; postemergence, 0-100 scale): 0 | Plant response rating, Morningglory [9, 19]: 0 | Plant response rating, Morningglory [9, 24]: 0 | Plant response rating, Morningglory [9, 20]: 0 | Plant response rating, Morningglory [9, 21]: 0 | Plant response rating, Morningglory [9, 22]: 0 | Plant response rating, Morningglory [9, 23]: 0 | Morningglory plant response rating ([9]; Preemergence, scale 0 to 100): 0 | Wheat plant response rating ([10]; postemergence, 0-100 scale): 10 | Plant response rating, Wheat [10, 19]: 45 | Plant response rating, Wheat [10, 20]: 95 | Plant response rating, Wheat [10, 21]: 0 | Plant response rating, Wheat [10, 22]: 0 | Plant response rating, Wheat [10, 23]: 90 | Wheat plant response rating ([10]; Preemergence, scale 0 to 100): 0 | Plant response rating, Russian Thistle [11, 25]: 0 | Plant response rating, Russian Thistle [11, 26]: 0 | Plant response rating, Russian Thistle ([11]; 62 g ai/ha, scale 0 to 100): 0 | Russian Thistle plant response rating ([11]; 8 g ai/ha, scale 0 to 100): 0 | Soybean plant response rating ([12]; postemergence, 0-100 scale): 0 | Plant response rating, Soybean [12, 19]: 0 | Plant response rating, Soybean [12, 20]: 0 | Plant response rating, Soybean [12, 21]: 0 | Plant response rating, Soybean [12, 22]: 0 | Plant response rating, Soybean [12, 23]: 0 | Soybean plant response rating ([12]; Preemergence, scale 0 to 100): 0 | Bromegrass, Downy plant response rating ([13]; postemergence, 0-100 scale): 30 | Plant response rating, Bromegrass, Downy [13, 19]: 45 | Plant response rating, Bromegrass, Downy [13, 24]: 50 | Plant response rating, Bromegrass, Downy [13, 20]: 60 | Plant response rating, Bromegrass, Downy [13, 21]: 55 | Plant response rating, Bromegrass, Downy [13, 22]: 60 | Plant response rating, Bromegrass, Downy [13, 23]: 90 | Bromegrass, Downy plant response rating ([13]; Preemergence, scale 0 to 100): 55 | Plant response rating, Sunflower [14, 25]: 0 | Plant response rating, Sunflower [14, 26]: 0 | Plant response rating, Sunflower ([14]; 62 g ai/ha, scale 0 to 100): 0 | Sunflower plant response rating ([14]; 8 g ai/ha, scale 0 to 100): 0
